The results in this text go back to PMC9952391, “The Role of Acetyl Zingerone and Its Derivatives in Inhibiting UV-Induced, Incident, and Delayed Cyclobutane Pyrimidine Dimers” (Antioxidants, 2023).

One data set deals with melanin in Mel-a cells. The experiment in a line: Melanin amount in melanocytes cultured in varied tyrosine. It is filed as cell-based. Conditions: 50 µg/mL; for Cell death on longer incubation: 2–3 weeks incubation. Here is the method:
The amino acid tyrosine is essential for melanin synthesis, and it is added to the OptiMem medium at a proprietary concentration by ThermoFisher. Assuming this concentration to be “100% tyrosine”, we purchased the “custom-prepared, tyrosine-free” medium from ThermoFisher. This medium lacked tyrosine or its precursors, which include L-tyrosine, L-tyrosine-2Na-2H2O, L-tyrosine-Di-sodium salt, Hypoxanthine, and Sodium Hypoxanthine. Mel-a (pigmented mouse melanocyte) cells were cultured in regular cell culture medium containing 100% tyrosine, and in medium containing 20%, 4%, or 0% of the total tyrosine amount. This was achieved by diluting the regular OptiMem with the one containing no tyrosine (tyrosine-free, 0% tyrosine). […] Since the cells cultured in 0%-tyrosine medium lost their pigment over time (Figure 5) and the cell pellets were almost white or opaque in color, we assumed that the minimal amount of tyrosine from the horse serum used in the cell culture medium was not sufficient for melanin synthesis. To estimate the amount of melanin, 3 × 10^6–5 × 10^6 cells were lysed in 1M sodium hydroxide (NaOH) by heating them at 100 °C for 1–2 h, which was followed by a 10-min spin at 14,000 rpm at room temperature to remove any cell debris. Absorbance of the supernatant was recorded using the supernatant in a 96-well plate in triplicates from each sample, at 460–490 nm. Synthetic melanin (Cat. M0418, Sigma) was dissolved in methanol and used as a positive control to generate standard curves to estimate the melanin amount in cell lysates. The number of cells in each pellet was used as a normalization factor for each experimental condition. In a complementary experiment, cells were first bleached out of melanin completely by culturing them in tyrosine-free medium, followed by 100/20/4/0% tyrosine (not shown) treatment. This seemed to be cytotoxic, comparatively more so in 100% tyrosine, probably owing to the toxicity of the sudden rush of melanin derivatives and the oxidative stress generated during melanin synthesis.

Data set [1] relates to incident CPDs (iCPDs) in HaCaT cells. The experiment in a line: iCPD assessment by DNA ELISA after ssUV, HaCaT. It is filed as cell-based, human. The source says:
(§1) For UV exposures, we used a “SOL-UV6 ultraviolet solar simulator” from Newport irradiators. It is equipped with a Xenon arc lamp where the output is varied using the integrated variable attenuator aperture, which provides the ability to vary the output from 10% to 100% of the maximum available solar constants. The output spectrum is flat from 320 nm to 400 nm and no values are below 300 nm. This is abbreviated as “ssUV” for “solar-simulated UV” throughout the text. Various cell types seeded at ~50% confluency, were treated with the AZ and analogs at concentrations mentioned in the data figures for 24–h. Cells at ~80–90% confluency (untreated controls), were washed twice with PBS and exposed to 18 kJ/m^2 of ssUV in minimal amount of PBS (ex. 2 mL PBS in a 60 mm cell culture dish) without any dish lid in place. […] The ssUV apparatus was monitored almost daily using UV meters for any emissions below 300 nm. The dose was decided based upon the 80–90% cell survival post UV exposure. After exposure, one time point was collected immediately to assess iCPDs, whereas more dishes were incubated in cell culture medium, inside the cell culture incubator, for various time points to be collected post UV to assess dCPDs. For dCPD induction, it is important that the cell culture incubator is not opened for at least 30 min (the first time point post UV) to avoid possible interference from the CO2/O2 ratio, which will be altered upon opening the incubator doors. Cells were collected by scraping and washed once with PBS, which was followed by DNA isolation using a Quick DNA miniprep Kit (Cat. D3024, Zymo Research, Irvine, CA, USA). CPDs were assessed using our previously established DNA ELISA protocols. In brief, ELISA was performed using mouse monoclonal Anti-CPD (Cat. CAC-NM-DND-001, Clone TDM-2, CosmoBio, Inc., Carlsbad, CA, USA). […] A measure of 50 µL of 2M H2SO4 was used to stop the reaction as soon as the color developed (5–10 min incubation in substrate), and OD was measured at 490 nm using a Synergy-2 multimode microplate reader (BioTek, Winooski, VT, USA).

For data set [2], the system named is incident CPDs (iCPDs) in NBHF cells. The experiment in a line: iCPD assessment by DNA ELISA after ssUV, NBHF. It is filed as cell-based, human. The following applies: for Blockade of iCPDs: 24 h preincubation; for iCPD inhibition across doses: various doses, Figure 3C / Supplementary Figure S2B. The source says: (§2) For UV exposures, we used a “SOL-UV6 ultraviolet solar simulator” from Newport irradiators. It is equipped with a Xenon arc lamp where the output is varied using the integrated variable attenuator aperture, which provides the ability to vary the output from 10% to 100% of the maximum available solar constants. The output spectrum is flat from 320 nm to 400 nm and no values are below 300 nm. This is abbreviated as “ssUV” for “solar-simulated UV” throughout the text. Various cell types seeded at ~50% confluency, were treated with the AZ and analogs at concentrations mentioned in the data figures for 24–h. Cells at ~80–90% confluency (untreated controls), were washed twice with PBS and exposed to 18 kJ/m^2 of ssUV in minimal amount of PBS (ex. 2 mL PBS in a 60 mm cell culture dish) without any dish lid in place. […] The ssUV apparatus was monitored almost daily using UV meters for any emissions below 300 nm. The dose was decided based upon the 80–90% cell survival post UV exposure. After exposure, one time point was collected immediately to assess iCPDs, whereas more dishes were incubated in cell culture medium, inside the cell culture incubator, for various time points to be collected post UV to assess dCPDs. For dCPD induction, it is important that the cell culture incubator is not opened for at least 30 min (the first time point post UV) to avoid possible interference from the CO2/O2 ratio, which will be altered upon opening the incubator doors. Cells were collected by scraping and washed once with PBS, which was followed by DNA isolation using a Quick DNA miniprep Kit (Cat. D3024, Zymo Research, Irvine, CA, USA). CPDs were assessed using our previously established DNA ELISA protocols. In brief, ELISA was performed using mouse monoclonal Anti-CPD (Cat. CAC-NM-DND-001, Clone TDM-2, CosmoBio, Inc., Carlsbad, CA, USA). Flat-bottom, 96-well plates (Cat. 2801, Thermo Scientific, Waltham, MA, USA) were coated overnight with 50 µL of protamine sulphate (0.005–0.05%, Cat. P3369, Sigma, St. Lois, MO, USA) in distilled water. After washing twice with water, heat-denatured DNA was plated in triplicates from each sample, into the protamine sulphate coated plate wells (50–100 ng/well in 50 µL PBS) and incubated overnight at 37 °C. The plates were washed 5 times with 200 µL of PBST (PBS containing 0.05% Tween-20 Cat. P7949, Sigma), and blocked with 2–4% FBS in PBST (blocking buffer) for 1 h at room temperature (RT). The plates were incubated with 100 µL of a 1:1000 dilution of anti-CPD antibody in blocking buffer, and incubated for 30 min at 37 °C, which was followed by 5 washes in PBST. Next, the plates were incubated with 100 µL of a 1:2000 dilution of Biotin-F(ab’)2 fragment of anti-mouse IgG(H+L) (Cat. B-2763, Life Technologies) in blocking buffer for 30 min at 37 °C. Detection was conducted using 100 µL of a 1:10,000 dilution of Streptavidin HRP (Cat. 434323, Life Technologies) in 2% FBS for 30 min at 37 °C, which was followed by 5 washes. The plates were washed once with citrate phosphate buffer (24.3 mM citric acid monohydrate, J.T. Baker Cat. 0110-01- and 51.4-mM sodium phosphate dibasic, Sigma Cat. S7907, pH 5.0). The o-phenylene diamine dihydrochloride (Cat. P8287-50TAB, Sigma) was used as a HRP substrate at 400 µg/mL in citrate phosphate buffer for 5–10 min. A measure of 50 µL of 2M H2SO4 was used to stop the reaction as soon as the color developed (5–10 min incubation in substrate), and OD was measured at 490 nm using a Synergy-2 multimode microplate reader (BioTek, Winooski, VT, USA).
For orientation: An ELISA detects its analyte on a solid surface through an enzyme-linked reagent.

The subject of data set [3] is incident CPDs (iCPDs) in albino C57BL/6 melanocytes (Mel-c). The experiment in a line: iCPD assessment by DNA ELISA after ssUV, Mel-c. It is filed as cell-based, mouse. Conditions: various doses up to 1 mg/mL, 24 h, Figure 4B.
Source text: as §1

In data set [4] the test system is incident CPDs (iCPDs) in pigmented C57BL/6 melanocytes (Mel-a). The data set is described as follows: iCPD assessment by DNA ELISA after ssUV, Mel-a. It is filed as cell-based, mouse. The following applies: for Blockade of iCPDs: 50 µg/mL, 24-h preincubation, 18 kJ/m^2 ssUV; for iCPD inhibition across doses: various doses up to 1 mg/mL, 24 h, Figure 4A.
Source text: as §2

With `COc1cc(CC(C(C)=O)C(C)=O)ccc1O` [AZ, 3-(4-Hydroxy-3-methoxybenzyl)-pentane-2,4-dione], the “Impact on melanin” value in the data set with melanin in Mel-a cells (different tyrosine variations) is recorded as “did not show any impact”. For the same molecule, in the data set on melanin in Mel-a cells, the “Cell death on longer incubation” value is listed as 10–15%. Also, the “Blockade of iCPDs” value in data set [1] (250 µg/mL, 24 h preincubation) is ~ 50%; in data set [2] (1 mg/mL), ~ 50%; in data set [4], ~ 30%. Further, the “iCPD inhibition across doses” value is “minimal effect” in data set [2], “no significant impact” in data set [3] and “blocked iCPD generation in a dose-dependent manner” in data set [4].
For orientation: inhibition means the share of the control response that was lost under treatment. As to `COc1ccc(CC(C(C)=O)C(C)=O)cc1` [MBPD, 3-(4-Methoxy-benzyl)-pentane-2,4-dione], the “Reduction in melanin (pigmentation)” value in the data set with melanin in Mel-a cells (20% or less tyrosine, ~2–3 weeks) is > 50%. The “Reduction in melanin concentration” value in the data set on melanin in Mel-a cells (100% tyrosine, ~2–3 weeks) is given as ~ 25%. Also, the “Cell death on longer incubation” value in the data set on melanin in Mel-a cells is 10–15%. Moreover, the “iCPD inhibition” value in data set [1] (various doses, Supplementary Figure S2A) is on record as “did not show any effect”. Moreover, the “Blockade of iCPDs” value is on record as ~ 50% in data set [2] (50 µg/mL, 18 kJ/m^2 ssUV) and ~50% in data set [4]. Besides, the inhibition at 10 µg/mL in data set [2] (Homo sapiens, 10 ug/mL, Figure 3C, read-out: Inhibition of iCPD formation) lay in the range of 30 to 40%. In addition, the “iCPD inhibition across doses” value in data set [2] is “dose-dependent manner”; in data set [3], “no significant impact”; in data set [4] it was “blocked iCPD generation in a dose-dependent manner”.
